Laboratory results: patent US20240051956A1, “SOS1 INHIBITORS AND USES THEREOF” (QILU REGOR THERAPEUTICS INC., priority 2020, published 2024)
Read-outs that look alike come from different tables or passages of the source.

How the values were obtained:
[1] = Human liver microsomal stability; type: in vitro ADME; conditions: for half-life: human liver microsomes, read-out: Human liver microsomal stability, T1/2; for stability in human liver microsomal assay: in words, compound I-18 vs present compounds
[2] = tested on: NCI-H358; assay: Cell proliferation assay, 3D, CellTiter-Glo 3D; type: cell-based, human; conditions: for IC50: Homo sapiens, read-out: anit-prolif. H358 IC50
Procedure: b. Cell Proliferation Assay
Low IC50 values are indicative of high potency of the compounds in this assay setting.
Cell proliferation assay is performed in three-dimensional (3D) ultra-low conditions with the human cell line NCI-H358, a human non-small cell lung cancer (NSCLC) cell line with a KRAS G12C mutation.
• 96-well Clear Round Bottom Ultra-Low Attachment Microplate (Corning, Cat. 7007) • 96-well Flat Clear Bottom White Polystyrene TC-treated Microplates (Corning, Cat. 3610) • RPMI-1640 Medium (Gibco, Cat. 22400105) • Fetal Bovine Serum (FBS) (Gibco, Cat. 10099141C) • 0.25% Trypsin-EDTA (Gibco, Cat. 25200056) • Penicillin-Streptomycin (Gibco, Cat. 15140122) • CellTiter-Glo 3D Cell Viability Assay (Promega, Cat. G9683)
NCI-H358 cells (ATCC, Cat. CRL-5807) are grown in cell culture flasks using RPMI medium supplemented with 10% FBS. Cells are incubated at 37° C. and 5% C02 in a humidified atmosphere, with sub-cultivation performed twice a week. Cells are trypsinized, counted and plated in 96-well ultra-low adhesion plates for 3D cell viability determination. The day after plating, serial dilutions of SOS1 inhibitor compounds are made using Tecan D300e Digital Dispenser to evaluate a concentration-dependent effect on cell viability. The concentration of the test compounds covers a range between 5 μM and 0.76 nM with serial 1:3 dilutions in 9 concentrations. 0.5 μL serial dilutions of the compounds are added in duplicates. 3 days later, the CellTiter-Glo 3D Cell Viability Assay is used to measure cell viability effects of SOS1 inhibitor compounds in 3D format. Luminescent intensity is determined using Envision (PerkinElmer). Data is analyzed and IC50 values are calculated using GraphPad Prism.

[3] = molecular target: SOS1 and KRAS G12D (Homo sapiens (Human), UniProt Q07889); assay: KRAS::SOS1 AlphaScreen Binding Assay; conditions: SOS1 (564-1049), KRAS G12D (1-169), GDP
Excerpt: a. KRAS::SOS1 AlphaScreen Binding Assay
Low IC50 values of given compounds are indicative of high potency of the SOS1 inhibitor compounds in this assay setting.
• GST-TEV-SOS1 (564-1049) and His-TEV-Avi-KRAS G12D (1-169) are purchased from Viva Biotech (Shanghai) Ltd. • GDP (Sigma, Cat. G7127) • AlphaLISA Glutathione Acceptor Beads (PerkinElmer, Cat. AL109C) • AlphaScreen Streptavidin Donor Beads (PerkinElmer, Cat. 6760002S) • Assay plates: ProxiPlate-384 Plus, White 384-shallow well Microplate (PerkinElmer, Cat. 6008280)
SOS1 inhibitor compounds are diluted to a final start concentration of […]. Serial dilutions of compounds are made using Tecan D300e Digital Dispenser in 9 concentrations with serial 1:3 dilutions. 100 nL of compound solution is transferred to the 384-well assay plate per well, covering a range between 1 μM and 0.15 nM minimum in duplicate. 10 nM (final assay concentration) KRAS G12D, 5 nM (final assay concentration) SOS1 and 10 μM (final assay concentration) GDP are mixed in assay buffer, and 5 μL of KRAS::SOS1 GDP mix is added into the assay plate to the 100 nL of compound solution (final dilution in the assay 1:100, final DMSO concentration 1%). After a 30 min incubation, AlphaLISA Glutathione Acceptor Beads and AlphaScreen Streptavidin Donor Beads are mixed in assay buffer at a concentration of 5 µg/mL (final assay concentration), and 5 μL of bead mix is added into the assay plate. Plates are kept at room temperature in a darkened incubator for 3 h. After a 3 h incubation, the signal is determined using Envision (PerkinElmer). The excitation wavelength is 680 nm, and emission 615 nm. IC50 values are calculated and analyzed using GraphPad Prism.

[4] = 72 h, NCI-H358 (KRAS G12C), 3D ultra-low attachment, 3 days

SOS1 and KRAS G12D, sequence (Q07889 564-1049, stated change not applied): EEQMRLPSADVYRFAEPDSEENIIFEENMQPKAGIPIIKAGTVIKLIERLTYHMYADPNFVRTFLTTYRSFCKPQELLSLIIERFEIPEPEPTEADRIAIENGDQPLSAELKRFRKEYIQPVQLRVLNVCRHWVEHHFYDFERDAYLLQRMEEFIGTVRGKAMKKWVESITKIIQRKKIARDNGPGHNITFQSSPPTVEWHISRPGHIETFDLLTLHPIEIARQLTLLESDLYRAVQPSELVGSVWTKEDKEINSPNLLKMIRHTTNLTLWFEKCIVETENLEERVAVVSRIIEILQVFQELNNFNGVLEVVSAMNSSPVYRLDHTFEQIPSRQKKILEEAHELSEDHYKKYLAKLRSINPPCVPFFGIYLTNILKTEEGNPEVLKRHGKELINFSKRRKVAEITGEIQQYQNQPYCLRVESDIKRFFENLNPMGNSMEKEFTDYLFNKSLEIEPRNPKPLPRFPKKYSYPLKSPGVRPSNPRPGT

Question: Which results are given for `Cc1nc(N[C@H](C)c2cccc(C(F)F)c2F)c2cn(N3CCOCC3)c(=O)cc2n1` [Example 1, 4-[[(1R)-1-[3-(difluoromethyl)-2-fluoro-phenyl]ethyl]amino]-2-methyl-6-morpholino-pyrido[4,3-d]pyrimidin-7-one]?
Answer: half-life [1]: 1.4 h; stability in human liver microsomal assay [1]: dramatically improved; IC50 [2, 4]: ≤ 0.1 µM; IC50 ([2]; NCI-H358, H358 cells): 0.04 µM; IC50 [3]: ≤ 0.015 µM

Question: Which results are given for `Cc1nc(N[C@H](C)c2cccc(C(F)(F)F)c2C)c2cn(N3CCOCC3)c(=O)cc2n1` [Example 17, (R)-2-methyl-4-((1-(2-methyl-3-(trifluoromethyl)phenyl)ethyl)amino)-6-morpholinopyrido[4,3-d]pyrimidin-7(6H)-one]?
Answer: half-life [1]: 1.83 h; stability in human liver microsomal assay [1]: dramatically improved; IC50 [2, 4]: ≤ 0.1 µM; IC50 ([2]; NCI-H358, H358 cells): 0.023 µM; IC50 [3]: ≤ 0.015 µM

Question: With `Cc1nc(N[C@H](C)c2cccc(C(F)F)c2F)c2cn(N3CCOCC3)c(=O)c(F)c2n1` [Example 29, (R)-4-((1-(3-(difluoromethyl)-2-fluorophenyl)ethyl)amino)-8-fluoro-2-methyl-6-morpholinopyrido[4,3-d]pyrimidin-7 (6H)-one] as the compound, how does the half-life [1] read?
Answer: The half-life was 2.33 h.

Question: What about the “stability in human liver microsomal assay” value (from here on “stability”) [1] of the same compound?
Answer: Its value is “dramatically improved”.

Question: What about the IC50 [2, 4] of the same compound?
Answer: Its IC50 is ≤ 0.1 µM.

Question: And the IC50 ([2]; NCI-H358, H358 cells)?
Answer: Its IC50 is 0.049 µM.

Question: What about the IC50 [3] of the same compound?
Answer: The IC50 was ≤ 0.015 µM.

Question: For `Cc1nc(N[C@H](C)c2cccc(C(F)(F)F)c2C)c2cn(N3CCOCC3)c(=O)c(F)c2n1` [Example 30], which half-life [1] is on record?
Answer: Its half-life is 3.17 h.

Question: And the “stability” value [1]?
Answer: Its value is “dramatically improved”.

Question: And the IC50 [2, 4]?
Answer: The IC50 was ≤ 0.1 µM.

Question: And the IC50 ([2]; NCI-H358, H358 cells)?
Answer: The IC50 was 0.028 µM.

Question: What about the IC50 [3] of the same compound?
Answer: Its IC50 is ≤ 0.015 µM.

Question: Which half-life [1] does the source give for `Cc1nc(N[C@H](C)c2cccc(C(F)F)c2F)c2cn(N3CCOCC3)c(=O)c(-c3ccc(S(C)(=O)=O)cc3)c2n1` [Example 43, 4-[[(1R)-1-[3-(difluoromethyl)-2-fluoro-phenyl]ethyl]amino]-2-methyl-8-(4-methylsulfonylphenyl)-6-morpholino-pyrido[4,3-d]pyrimidin-7-one] here?
Answer: Its half-life is > 16.7 h.

Question: What about the “stability” value [1] of the same compound?
Answer: The value was “dramatically improved”.

Question: And the IC50 [2, 4]?
Answer: The IC50 was ≤ 0.1 µM.

Question: What about the IC50 ([2]; NCI-H358, H358 cells) of the same compound?
Answer: Its IC50 is 0.053 µM.

Question: And the IC50 [3]?
Answer: The IC50 was ≤ 0.015 µM.

Question: For `Cc1nc(N[C@H](C)c2cccc(C(F)F)c2F)c2cn(N3CCOCC3)c(=O)c(-c3cnn(CCO)c3)c2n1` [Example 53], which half-life [1] is on record?
Answer: The half-life was 0.733 h.

Question: And the “stability” value [1]?
Answer: Its value is “dramatically improved”.

Question: And the IC50 [2, 4]?
Answer: Its IC50 is ≤ 0.1 µM.

Question: And the IC50 ([2]; NCI-H358, H358 cells)?
Answer: The IC50 was 0.06 µM.

Question: And the IC50 [3]?
Answer: Its IC50 is ≤ 0.015 µM.

Question: What does the source list for `Cc1nc(N[C@H](C)c2cccc(C(F)F)c2F)c2cn(N3CCOCC3)c(=O)c(-c3ccc(S(C)(=O)=O)nc3)c2n1` [Example 61]?
Answer: half-life [1]: > 16.7 h; stability in human liver microsomal assay [1]: dramatically improved; IC50 [2, 4]: ≤ 0.1 µM; IC50 ([2]; NCI-H358, H358 cells): 0.031 µM; IC50 [3]: ≤ 0.015 µM

Question: What does the source list for `Cc1nc(N[C@H](C)c2cccc(C(F)(F)F)c2C)c2cn(N3CCOCC3)c(=O)c(-c3ccc(C#N)nc3)c2n1` [Example 76]?
Answer: IC50 [2, 4]: 0.1 to 0.5 µM; IC50 [3]: 0.015 to 0.15 µM

Question: Which results are given for `CNCc1ccccc1-c1csc([C@@H](C)Nc2nc(C)nc3cc(=O)n(N4CCOCC4)cc23)c1` [Example 77, 2-methyl-4-[[(1R)-1-[4-[2-(methylaminomethyl)phenyl]-2-thienyl]ethyl]amino]-6-morpholino-pyrido[4,3-d]pyrimidin-7-one]?
Answer: IC50 [2, 4]: 0.1 to 0.5 µM; IC50 [3]: ≤ 0.015 µM

Question: Which results are given for `Cc1nc(N[C@H](C)c2cccc(C(F)F)c2F)c2cn(-n3ccnc3)c(=O)c(F)c2n1` [Example 86]?
Answer: IC50 [2, 4]: 0.5 to 1 µM; IC50 [3]: 0.015 to 0.15 µM

Question: With `Cc1nc(N[C@H](C)c2cccc(C(F)F)c2F)c2cn(C3CCOCC3)c(=O)cc2n1` [Example I-18, reference compound] as the compound, how does the half-life [1] read?
Answer: Its half-life is 0.05 h.

Question: And the “stability” value [1]?
Answer: Its value is “very poor stability”.

Question: And the IC50 ([2]; NCI-H358, H358 cells)?
Answer: The IC50 was 0.164 µM.

Question: What about the “activity in H358 cellular assay” value ([2]; in words, compound I-18 vs present compounds) of the same compound?
Answer: The value was “weaker activity”.
